In patent US20090012000A1, “Anti-Viral Peptide and Use Thereof” (TOAGOSEI CO., LTD., priority 2006, published 2009):
Ends that are not written are not given here.

Assays:
[1] = system: A/New Calcdonia/20/99 (H1N1) influenza virus; experiment: Influenza virus multiplication inhibition assay (plaque assay) in MDCK cells; assay type: cell-based; settings: 48 hours; for Infectivity Titer, Trial 1: control 1.1 × 10^9; for Infectivity Titer, Trial 2: control 2.1 × 10^9
[2] = system: HVT (turkey herpes virus); experiment: HVT multiplication suppression test in CEF cells, titer by plaque assay; assay type: cell-based, turkey herpes virus (FC-126 strain); settings: for Ratio (relative ratio of virus titer, no peptide added = 1) / Titer: CEF cells, six days; for antiviral activity (viral multiplication suppression effect): result in words, peptide 10, 50 and 100 μM
Experimental: The antiviral activity (viral multiplication suppression effect) was examined for each sample antiviral peptide and each comparative sample peptide. In the present example, HVT (turkey herpes virus) was used as the target virus, and the titer was measured based on the plaque assay method.
That is to say, chicken embryo fibroblast (CEF) cells prepared from SPF (specific pathogen-free) embryonated hen's egg (purchased from Nisseiken Co., LTD) were monolayer-cultured at 37° C. using Leibowitz-McCoy 5A (1:1) mixed culture medium (LM medium). The culture was peeled from the culture dish by trypsin digestion and transferred to a 50 mL centrifugation tube. After centrifugal separation, the supernatant was discarded and the culture was suspended with LM medium.
HVT (FC-126 strain used as vaccine), which virus titer was measured beforehand, was diluted with this cell suspension to as to have 100 plaque forming units (PFU) or 400 PFU per 2 mL. This dilute solution was dispensed in each well of a 6-well plate, 2 mL in each. Then, the test peptides (Samples 1 to 4, Comparative Samples 1 to 4) were diluted with PBS to be at 2.1 mM, 1050 μM and 210 μM, and added to each well, 0.1 mL in each. The final concentration of each well after addition was respectively 100 μM, 50 μM and 10 μM. A well to which 0.1 mL of PBS not containing peptide was added was prepared as a reference.
Thereafter, the above 6-well plate was placed in a CO2 incubator (5% CO2), cultured at 37° C. for six days, and the number and size of HVT plaques that appeared were observed. Here, comparing with wells with no peptide added, when a drop in the number of plaques or a reduction in the size of plaques was not observed even when a peptide was added, the viral multiplication suppression effect of this peptide was determined to be none. On the other hand, a test peptide for which a well with smaller plaque number or plaque size was present, the titer of each well was measured, and the viral multiplication suppression effect (antiviral activity) was quantified by comparing with the quantity of virus with no peptide added.
For the method for measuring the HVT virus titer, cells in each well were recovered by trypsin digestion, serially diluted, mixed again with CEF cells, dispensed in a 6-well plate and cultured at 37° C., and the number of plaques appeared after six days were counted. The relative ratio of virus titer at each peptide concentration was determined with the virus titer (PFU/mL) of the well with no peptide added being 1. That is to say, the viral multiplication suppression effect of each test peptide can be compared using the value of this relative ratio (Ratio).

Substance	Infectivity Titer, Trial 1 ([1]; peptide 100 μM)	Ratio (relative ratio of virus titer, no peptide added = 1) ([2]; peptide 100 μM)	antiviral activity (viral multiplication suppression effect) [2]	further results
RKKKRKV FKVKTTAPKRYCVRPN-CONH2 (RKKKRKVFKVKTTAPKRYCVRPN-NH2) [Sample 6]	3.3 × 10^8 PFU/mL	–	–	Infectivity Titer, Trial 1 ([1]; peptide 200 μM): 1.0 × 10^8 PFU/mL
RQARRNRRRRWR FKVKTTSPKKYFVRPN-CONH2 (RQARRNRRRRWRFKVKTTSPKKYFVRPN-NH2) [Sample 4]	5.8 × 10^8 PFU/mL	0.16	excellent antiviral activity	Infectivity Titer, Trial 1 ([1]; peptide 200 μM): 2.8 × 10^8 PFU/mL; Ratio (relative ratio of virus titer, no peptide added = 1) ([2]; peptide 10 μM): 1.0; Titer ([2]; peptide 10 μM): (7.6 × 10^4) PFU/mL; Ratio (relative ratio of virus titer, no peptide added = 1) ([2]; peptide 50 μM): 0.46; Titer ([2]; peptide 50 μM): (3.5 × 10^4) PFU/mL; Titer ([2]; peptide 100 μM): (1.2 × 10^4) PFU/mL
RKKKRKV-COOH (RKKKRKV-OH) [Comparative Sample 2, reference compound]	–	–	no viral multiplication suppression effect	–
RKKKRKV FKVKTTAPRRYCVRPN-CONH2 (RKKKRKVFKVKTTAPRRYCVRPN-NH2) [Sample 5]	3.5 × 10^8 PFU/mL	–	–	Infectivity Titer, Trial 1 ([1]; peptide 50 μM): 1.0 × 10^9 PFU/mL; Infectivity Titer, Trial 2 ([1]; peptide 50 μM): 1.2 × 10^9 PFU/mL; Infectivity Titer, Trial 2 ([1]; peptide 100 μM): 6.9 × 10^8 PFU/mL
RQARRNRRRRWR EFFDARE-CONH2 (RQARRNRRRRWREFFDARE-NH2) [Sample 2]	–	0.80	–	–
RQARRNRRRRWR-COOH (RQARRNRRRRWR-OH) [Comparative Sample 1, reference compound]	–	–	no viral multiplication suppression effect	–
FKIKITTAPKRYCVRPN-NH2 [Comparative Sample 4, reference compound]	–	–	no viral multiplication suppression effect	–
RKKKRKV FKIKTTAPKRYCVRPN-CONH2 (RKKKRKVFKIKTTAPKRYCVRPN-NH2) [Sample 3]	–	0.30	excellent antiviral activity	–
RQARRNRRRRWR EFFDAPE-CONH2 (RQARRNRRRRWREFFDAPE-NH2) [Sample 1]	–	0.90	–	–
EFFDAPE-COOH (EFFDAPE-OH; listed as Homo sapiens) [Comparative Sample 3, reference compound]	–	–	no viral multiplication suppression effect	–
